In patent publication US20230014907A1, “INHIBITORS OF APOL1 AND METHODS OF USING SAME” (Vertex Pharmaceuticals Incorporated, priority 2020, published 2023):
pIC50: −log10 of the molar value.

How the values were obtained:
[1] = molecular target: T1, G1 APOL1 (Homo sapiens, UniProt O14791, I384M/S342G); assay: Acute APOL1 Thallium Assay with Inducible Stable Clones of HEK 293 Cells; assay type: cell-based; settings: HEK 293 inducible stable clones, G1 APOL1; read-out: Thallium Assay (IC50)
T1 construct: expressed in transfected cells
T1 sequence (O14791 28-398 S342G/I384M): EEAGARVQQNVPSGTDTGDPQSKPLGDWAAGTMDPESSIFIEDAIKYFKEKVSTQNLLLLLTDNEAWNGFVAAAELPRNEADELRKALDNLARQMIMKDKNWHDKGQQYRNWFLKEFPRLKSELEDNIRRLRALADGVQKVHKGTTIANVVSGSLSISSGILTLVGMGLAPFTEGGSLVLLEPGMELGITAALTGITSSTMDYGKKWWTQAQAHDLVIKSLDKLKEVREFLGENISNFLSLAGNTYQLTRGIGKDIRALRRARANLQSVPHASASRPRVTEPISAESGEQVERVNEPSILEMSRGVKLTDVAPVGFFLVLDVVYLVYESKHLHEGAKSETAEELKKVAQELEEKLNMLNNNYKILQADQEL
In short: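 Pore activity was read as the fluorescence increase from Tl+ entering cells loaded with an AM-ester thallium indicator dye. The cells were tetracycline-inducible HEK293 T-Rex expressing G1 APOL1 (clone DC3.25), induced when plated at 26000 per well and incubated at 37° C.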

[2] = molecular target: T2, APOL1 G1 Protein (Homo sapiens, UniProt O14791, I384M/S342G); assay: Trypanosoma brucei brucei Lysis Assay Using APOL1 Recombinant Protein (AlamarBlue viability); assay type: cell-based; settings: read-out: Trypanosomal Assay (IC50)
T2 sequence (O14791 28-398 S342G/I384M): T1 sequence (O14791 28-398 S342G/I384M)
In short: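 Lister 427 bloodstream-form trypanosomes seeded at 120,000 per well in phenol-red-free, serum-free medium and lysed with recombinant APOL1 variant protein. Viability read by AlamarBlue (resazurin) fluorescence. Percent viability relative to untreated wells, interpolated from a standard curve of seeded parasites.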

pIC50 [1]	SMILES	pIC50 [2]
< 6.00	O=C(CCc1c(-c2ccc(F)cc2)[nH]c2c(F)cc(F)cc12)NC(c1ccco1)C(F)(F)F (centres unmarked) [Compound 157]	< 6.00
< 6.00	Cn1ccnc1NC(=O)CCc1c(-c2ccc(F)cc2)[nH]c2c(F)cc(F)cc12 [Compound 108]	< 6.00
6.00 to 6.60	O=C(CCc1c(-c2ccc(F)cc2)[nH]c2ccc(F)cc12)NC1(CO)CC1 [Compound 40]	6.00 to 6.60
> 6.60	O=C(CCc1c(-c2ccc(F)cc2)[nH]c2c(F)cc(F)cc12)NC(CO)CF (centres unmarked) [Compound 99]	> 6.60
< 6.00	CC1(O)CN(C(=O)CCc2c(-c3ccc(F)cc3)[nH]c3ccc(F)cc23)C1 [Compound 86]	< 6.00
< 6.00	Cn1nccc1NC(=O)CCc1c(-c2ccc(F)cc2)[nH]c2c(F)cc(F)cc12 [Compound 144]	< 6.00
< 6.00	O=C(CCc1c(-c2ccc(F)cc2)[nH]c2c(F)cc(F)cc12)N1CC[C@@H]1CO [Compound 112]	6.00 to 6.60
< 6.00	O=C(CCc1c(-c2ccc(F)cc2)[nH]c2c(F)cc(F)cc12)Nc1ccno1 [Compound 184]	< 6.00
6.00 to 6.60	O=C(CCc1c(-c2ccc(F)cc2)[nH]c2c(F)cc(F)cc12)Nc1c[nH][nH]c1=O [Compound 97]	< 6.00
< 6.00	O=C(CCc1c(-c2ccc(F)cc2)[nH]c2ccc(F)cc12)NC1COC1 [Compound 69]	< 6.00
6.00 to 6.60	CC(CO)(CO)NC(=O)CCc1c(-c2ccc(F)cc2)[nH]c2ccc(F)cc12 [Compound 18]	6.00 to 6.60
< 6.00	COCCNC(=O)CCc1c(-c2ccc(F)cc2)[nH]c2c(F)cc(F)cc12 [Compound 164]	< 6.00
6.00 to 6.60	O=C(CCc1c(-c2ccc(F)cc2)[nH]c2c(F)cc(F)cc12)NC(CO)(CO)CO [Compound 95]	6.00 to 6.60
6.00 to 6.60	CCNC(=O)C(C)NC(=O)CCc1c(-c2ccc(F)cc2)[nH]c2ccc(F)cc12 (racemic) [Compound 12]	6.00 to 6.60
6.00 to 6.60	CC(NC(=O)CCc1c(-c2ccc(F)cc2)[nH]c2c(F)cc(F)cc12)c1ccn(C)n1 (racemic) [Compound 133]	< 6.00
< 6.00	O=C(CCc1c(-c2ccc(F)cc2)[nH]c2ccc(F)cc12)N1CCC(O)C1 (centres unmarked) [Compound 42]	< 6.00
> 6.60	C[C@@H](CO)NC(=O)NCCc1c(-c2ccc(F)cc2)[nH]c2c(F)cc(F)cc12 [Compound 283]	> 6.60
< 6.00	CCC(C)(CO)NC(=O)CCc1c(-c2ccc(F)cc2)[nH]c2ccc(F)cc12 (racemic) [Compound 62]	< 6.00
< 6.00	CC(C)C[C@@H](CO)NC(=O)CCc1c(-c2ccc(F)cc2)[nH]c2c(F)cc(F)cc12 [Compound 158]	< 6.00

pIC50 [1]	SMILES	pIC50 [2]
6.00 to 6.60	CC(NC(=O)CCc1c(-c2ccc(F)cc2)[nH]c2ccc(F)cc12)C(N)=O (racemic) [Compound 13]	< 6.00
< 6.00	O=C(CCc1c(-c2ccc(F)cc2)[nH]c2c(F)cc(F)cc12)N[C@H]1CC[C@@H](O)C1 [Compound 179]	< 6.00
< 6.00	CC1(NC(=O)OC(C)(C)C)CCN(C(=O)CCc2c(-c3ccc(F)cc3)[nH]c3ccc(F)cc23)C1 (centres unmarked) [Compound 27]	< 6.00
< 6.00	NC(=O)[C@H](CO)NC(=O)CCc1c(-c2ccc(F)cc2)[nH]c2c(F)cc(F)cc12 [Compound 123]	< 6.00
< 6.00	O=C(CCc1c(-c2ccc(F)cc2)[nH]c2c(F)cc(F)cc12)Nc1cccc(=O)[nH]1 [Compound 170]	< 6.00
< 6.00	CC(O)C(C)NC(=O)CCc1c(-c2ccc(F)cc2)[nH]c2ccc(F)cc12 (mixture of isomers) [Compound 35]	< 6.00
< 6.00	O=C(CCc1c(-c2ccc(F)cc2)[nH]c2c(F)cc(F)cc12)NCc1cocn1 [Compound 155]	< 6.00
> 6.60	CC(=O)NCCSc1c(-c2ccc(F)cc2)[nH]c2c(F)cc(F)cc12 [Compound 509, N-[2-[[5,7-difluoro-2-(4-fluorophenyl)-1H-indol-3-yl]sulfanyl]ethyl]acetamide]	> 6.60
6.00 to 6.60	CC(C)(CO)NC(=O)CCc1c(-c2ccc(F)cc2)[nH]c2ccc(F)cc12 [Compound 19]	6.00 to 6.60
< 6.00	O=C(CCc1c(-c2ccc(F)cc2)[nH]c2ccc(F)cc12)NC1CONC1=O (centres unmarked) [Compound 63]	< 6.00
< 6.00	CC(CNC(=O)OC(C)(C)C)NC(=O)CCc1c(-c2ccc(F)cc2)[nH]c2ccc(F)cc12 (racemic) [Compound 59]	< 6.00
6.00 to 6.60	O=C(CCc1c(-c2ccc(F)cc2)[nH]c2c(F)cc(F)cc12)NC1CCC1(F)F (centres unmarked) [Compound 124]	< 6.00
6.00 to 6.60	O=C(CCc1c(-c2ccc(F)cc2)[nH]c2ccc(F)cc12)N[C@H]1CC[C@@H]1O [Compound 29]	6.00 to 6.60
< 6.00	CN(CCN)C(=O)CCc1c(-c2ccc(F)cc2)[nH]c2ccc(F)cc12 [Compound 37]	< 6.00
6.00 to 6.60	O=C(CCc1c(-c2ccc(F)cc2)[nH]c2c(F)ccc(F)c12)N[C@H]1CCOC1=O [Compound 233, 3-[4,7-difluoro-2-(4-fluorophenyl)-1H-indol-3-yl]-N-[(3S)-2-oxotetrahydrofuran-3-yl]propanamide]	< 6.00
< 6.00	CC1(C)COC(=O)C1NC(=O)CCc1c(-c2ccc(F)cc2)[nH]c2c(F)cc(F)cc12 (centres unmarked) [Compound 193]	< 6.00
6.00 to 6.60	C[C@@H](O)[C@H](CO)NC(=O)CCc1c(-c2ccc(F)cc2)[nH]c2ccc(F)cc12 [Compound 38]	6.00 to 6.60
< 6.00	O=C(CCc1c(-c2ccc(F)cc2)[nH]c2ccc(F)cc12)N[C@H]1C[C@H](O)C1 [Compound 84]	< 6.00
